Values belong to the compound of their own block, whether it stands above or below them.
Experiments:
[1] = target: CDK2/Cyclin A2 (Homo sapiens) (UniProt P24941+P20248); assay: Inhibition of CDK2/cyclinA (unknown origin) at 100 nM; type: protein-complex assay
[2] = target: Mitogen-activated protein kinase 1 (Homo sapiens) (UniProt P28482); assay: Inhibition of ERK2 (unknown origin) at 100 nM
[3] = target: Inhibitor of nuclear factor kappa-B kinase subunit beta (Homo sapiens) (UniProt O14920); assay: Inhibition of IKKbeta (unknown origin) at 100 nM
[4] = test system: Epidermal growth factor receptor (Homo sapiens), P00533 [L861Q]; assay: Inhibition of EGFR L861Q mutant (unknown origin) at 100 nM; type: protein assay
[5] = target: Insulin-like growth factor 1 receptor (Homo sapiens) (UniProt P08069); assay: Inhibition of IGF1R (unknown origin) at 100 nM
[6] = target: Casein kinase I isoform gamma-2 (Homo sapiens) (UniProt P78368); assay: Inhibition of CK1gamma2 (unknown origin) at 100 nM
[7] = test system: Epidermal growth factor receptor (Homo sapiens), P00533 [L858R,T790M]; assay: Inhibition of EGFR T790M/L858R double mutant (unknown origin) at 100 nM; type: protein assay
[8] = target: Tyrosine-protein kinase Yes (Homo sapiens) (UniProt P07947); assay: Inhibition of YES (unknown origin) at 100 nM
[9] = target: Mitogen-activated protein kinase kinase kinase 8 (Homo sapiens) (UniProt P41279); assay: Inhibition of COT (unknown origin) at 100 nM
[10] = target: Tyrosine-protein kinase JAK1 (Homo sapiens) (UniProt P23458); assay: Inhibition of JAK1 (unknown origin) at 100 nM
[11] = target: SRSF protein kinase 2 (Homo sapiens) (UniProt P78362); assay: Inhibition of SRPK2 (unknown origin) at 100 nM
[12] = target: Ribosomal protein S6 kinase beta-1 (Homo sapiens) (UniProt P23443); assay: Inhibition of p70S6K(unknown origin) at 100 nM
[13] = target: Casein kinase I isoform alpha (Homo sapiens) (UniProt P48729); assay: Inhibition of CK1alpha1 (unknown origin) at 100 nM
[14] = target: Ribosomal protein S6 kinase alpha-1 (Homo sapiens) (UniProt Q15418); assay: Inhibition of RSK1 (unknown origin) at 100 nM
[15] = target: Protein-tyrosine kinase 6 (Homo sapiens) (UniProt Q13882); assay: Inhibition of BRK (unknown origin) at 100 nM
[16] = target: Fibroblast growth factor receptor 1 (Homo sapiens) (UniProt P11362); assay: Inhibition of FGFR1 (unknown origin) at 100 nM
[17] = target: Mast/stem cell growth factor receptor Kit (Homo sapiens) (UniProt P10721); assay: Inhibition of KIT (unknown origin) at 100 nM
[18] = target: Insulin receptor (Homo sapiens) (UniProt P06213); assay: Inhibition of INSR (unknown origin) at 100 nM
[19] = target: Tyrosine-protein kinase BTK (Homo sapiens) (UniProt Q06187); assay: Inhibition of BTK (unknown origin) at 100 nM
[20] = target: Hepatocyte growth factor receptor (Homo sapiens) (UniProt P08581); assay: Inhibition of MET (unknown origin) at 100 nM
[21] = target: RAC-alpha serine/threonine-protein kinase (Homo sapiens) (UniProt P31749); assay: Inhibition of AKT1 (unknown origin) at 100 nM
[22] = target: Interleukin-1 receptor-associated kinase 4 (Homo sapiens) (UniProt Q9NWZ3); assay: Inhibition of IRAK4 (unknown origin) at 100 nM
[23] = target: Mitogen-activated protein kinase 10 (Homo sapiens) (UniProt P53779); assay: Inhibition of JNK3 (unknown origin) at 100 nM
[24] = target: Serine/threonine-protein kinase D1 (Homo sapiens) (UniProt Q15139); assay: Inhibition of PKD1 (unknown origin) at 100 nM
[25] = target: Dual specificity mitogen-activated protein kinase kinase 1 (Homo sapiens) (UniProt Q02750); assay: Inhibition of MEK1 (unknown origin) at 100 nM
[26] = target: Aurora kinase B (Homo sapiens) (UniProt Q96GD4); assay: Inhibition of Aurora B (unknown origin) at 100 nM
[27] = target: Serine/threonine-protein kinase PAK 4 (Homo sapiens) (UniProt O96013); assay: Inhibition of PAK4 (unknown origin) at 100 nM
[28] = target: Tyrosine-protein kinase Lyn (Homo sapiens) (UniProt P07948); assay: Inhibition of LYN (unknown origin) at 100 nM
Homo sapiens = species: Homo sapiens; assay: Inhibition of PKA (unknown origin) at 100 nM
[29] = target: Serine/threonine-protein kinase TBK1 (Homo sapiens) (UniProt Q9UHD2); assay: Inhibition of TBK1 (unknown origin) at 100 nM
[30] = test system: RAF proto-oncogene serine/threonine-protein kinase (Homo sapiens), P04049 [Y340D,Y341D]; assay: Inhibition of RAF1 Y340D/Y341D double mutant (unknown origin) at 100 nM
[31] = target: Proto-oncogene tyrosine-protein kinase Src (Homo sapiens) (UniProt P12931); assay: Inhibition of SRC (unknown origin) at 100 nM
[32] = target: Epidermal growth factor receptor (Homo sapiens, UniProt P00533); assay: Inhibition of EGFR (unknown origin) at 100 nM
[33] = target: Platelet-derived growth factor receptor beta (Homo sapiens) (UniProt P09619); assay: Inhibition of PDGFRbeta (unknown origin) at 100 nM
[34] = target: Tyrosine-protein kinase Fyn (Homo sapiens) (UniProt P06241); assay: Inhibition of FYN (unknown origin) at 100 nM
[35] = Efflux ratio of permeability from basolateral to apical side over apical to basolateral side in MDCK cells; type: ADME, cell-based, Canis lupus familiaris; conditions: dog
[36] = target: RAC-gamma serine/threonine-protein kinase (Homo sapiens) (UniProt Q9Y243); assay: Inhibition of AKT3 (unknown origin) at 100 nM
[37] = target: Cytoplasmic tyrosine-protein kinase BMX (Homo sapiens) (UniProt P51813); assay: Inhibition of BMX (unknown origin) at 100 nM
[38] = target: Non-receptor tyrosine-protein kinase TYK2 (Homo sapiens) (UniProt P29597); assay: Inhibition of TYK2 (unknown origin) at 100 nM
[39] = target: Mitogen-activated protein kinase 8 (Homo sapiens) (UniProt P45983); assay: Inhibition of JNK1 alpha1 (unknown origin) at 100 nM
[40] = target: Protein-tyrosine kinase 2-beta (Homo sapiens) (UniProt Q14289); assay: Inhibition of FAK2 (unknown origin) at 100 nM
[41] = target: Tyrosine-protein kinase ZAP-70 (Homo sapiens) (UniProt P43403); assay: Inhibition of ZAP70 (unknown origin) at 100 nM
[42] = target: Tyrosine-protein kinase SYK (Homo sapiens) (UniProt P43405); assay: Inhibition of SYK (unknown origin) at 100 nM
[43] = Volume of distribution at steady state in rat; type: ADME, organism-based; conditions: in vivo, read-out: Vdss

Chain of Hepatocyte growth factor receptor (Homo sapiens) (P08581 whole entry): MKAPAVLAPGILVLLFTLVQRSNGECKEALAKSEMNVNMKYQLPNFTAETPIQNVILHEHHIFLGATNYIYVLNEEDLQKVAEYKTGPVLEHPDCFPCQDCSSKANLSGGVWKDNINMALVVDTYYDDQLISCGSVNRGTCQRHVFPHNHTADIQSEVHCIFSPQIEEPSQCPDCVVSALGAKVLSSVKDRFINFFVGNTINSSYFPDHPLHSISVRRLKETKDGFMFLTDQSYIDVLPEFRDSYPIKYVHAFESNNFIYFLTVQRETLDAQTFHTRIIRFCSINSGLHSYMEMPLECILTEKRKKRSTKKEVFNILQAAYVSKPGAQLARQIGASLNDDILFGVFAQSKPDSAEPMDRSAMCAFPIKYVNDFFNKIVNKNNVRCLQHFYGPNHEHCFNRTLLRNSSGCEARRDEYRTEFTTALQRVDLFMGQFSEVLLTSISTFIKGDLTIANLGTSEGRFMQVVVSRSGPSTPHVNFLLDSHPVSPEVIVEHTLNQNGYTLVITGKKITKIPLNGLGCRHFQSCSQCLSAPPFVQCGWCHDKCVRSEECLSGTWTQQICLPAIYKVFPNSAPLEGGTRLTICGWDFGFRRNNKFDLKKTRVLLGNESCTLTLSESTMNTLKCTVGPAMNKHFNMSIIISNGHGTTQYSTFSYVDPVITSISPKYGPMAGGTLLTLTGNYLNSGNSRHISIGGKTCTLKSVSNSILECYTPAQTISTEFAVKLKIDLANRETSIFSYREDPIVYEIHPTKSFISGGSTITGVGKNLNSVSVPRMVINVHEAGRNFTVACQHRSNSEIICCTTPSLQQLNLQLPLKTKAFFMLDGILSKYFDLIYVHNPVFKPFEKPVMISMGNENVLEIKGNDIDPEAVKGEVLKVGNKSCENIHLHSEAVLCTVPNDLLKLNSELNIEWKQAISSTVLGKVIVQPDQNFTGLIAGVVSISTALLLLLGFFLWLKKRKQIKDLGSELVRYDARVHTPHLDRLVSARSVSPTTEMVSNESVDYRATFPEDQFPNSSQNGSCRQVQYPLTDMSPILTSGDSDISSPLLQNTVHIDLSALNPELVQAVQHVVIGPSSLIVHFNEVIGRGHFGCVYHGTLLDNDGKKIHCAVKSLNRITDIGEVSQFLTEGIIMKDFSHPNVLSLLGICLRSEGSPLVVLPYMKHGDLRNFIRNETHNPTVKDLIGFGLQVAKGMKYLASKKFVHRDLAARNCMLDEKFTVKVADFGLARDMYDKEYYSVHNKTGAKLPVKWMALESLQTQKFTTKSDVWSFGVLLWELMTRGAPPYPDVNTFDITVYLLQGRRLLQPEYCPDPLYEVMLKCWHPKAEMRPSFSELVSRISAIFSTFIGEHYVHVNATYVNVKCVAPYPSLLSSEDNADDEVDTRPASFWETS
Chain of Mitogen-activated protein kinase 1 (Homo sapiens) (P28482 whole entry): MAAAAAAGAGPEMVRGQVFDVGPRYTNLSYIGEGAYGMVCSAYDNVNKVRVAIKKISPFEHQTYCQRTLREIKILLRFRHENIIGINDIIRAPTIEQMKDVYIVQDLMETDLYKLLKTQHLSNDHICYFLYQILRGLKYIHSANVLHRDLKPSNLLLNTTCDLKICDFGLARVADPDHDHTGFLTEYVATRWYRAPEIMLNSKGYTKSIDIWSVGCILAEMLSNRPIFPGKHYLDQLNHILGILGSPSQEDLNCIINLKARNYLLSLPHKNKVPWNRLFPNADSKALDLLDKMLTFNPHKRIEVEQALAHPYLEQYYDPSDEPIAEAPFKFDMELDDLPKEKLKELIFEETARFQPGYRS
Chain of Protein-tyrosine kinase 2-beta (Homo sapiens) (Q14289 whole entry, looked up): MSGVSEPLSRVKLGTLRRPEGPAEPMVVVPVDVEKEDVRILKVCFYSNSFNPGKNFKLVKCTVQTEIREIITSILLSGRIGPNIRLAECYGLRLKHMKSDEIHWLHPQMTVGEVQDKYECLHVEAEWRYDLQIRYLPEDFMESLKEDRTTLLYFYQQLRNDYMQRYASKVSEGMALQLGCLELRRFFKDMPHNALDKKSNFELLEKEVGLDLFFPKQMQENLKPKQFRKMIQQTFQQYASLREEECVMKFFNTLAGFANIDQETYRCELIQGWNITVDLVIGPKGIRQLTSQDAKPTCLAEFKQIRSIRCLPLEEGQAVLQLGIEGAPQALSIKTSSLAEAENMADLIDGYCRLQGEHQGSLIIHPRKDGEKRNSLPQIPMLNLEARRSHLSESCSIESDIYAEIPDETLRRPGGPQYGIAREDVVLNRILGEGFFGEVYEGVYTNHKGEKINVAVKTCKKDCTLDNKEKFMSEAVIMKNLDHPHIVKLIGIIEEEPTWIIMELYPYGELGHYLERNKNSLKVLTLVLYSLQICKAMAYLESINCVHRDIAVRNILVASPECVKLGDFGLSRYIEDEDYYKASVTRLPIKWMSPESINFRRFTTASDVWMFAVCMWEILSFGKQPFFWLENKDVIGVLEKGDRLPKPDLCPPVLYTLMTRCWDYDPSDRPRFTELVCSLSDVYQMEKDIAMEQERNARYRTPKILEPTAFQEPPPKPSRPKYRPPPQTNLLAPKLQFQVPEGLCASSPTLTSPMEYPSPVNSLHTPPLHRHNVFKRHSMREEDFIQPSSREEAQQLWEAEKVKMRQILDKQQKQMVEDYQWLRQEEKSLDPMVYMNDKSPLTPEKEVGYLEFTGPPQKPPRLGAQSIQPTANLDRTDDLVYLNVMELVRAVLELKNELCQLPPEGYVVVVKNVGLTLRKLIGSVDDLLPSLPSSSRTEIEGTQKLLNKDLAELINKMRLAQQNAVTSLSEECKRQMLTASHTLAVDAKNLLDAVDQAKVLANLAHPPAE
Chain of Interleukin-1 receptor-associated kinase 4 (Homo sapiens) (Q9NWZ3 whole entry): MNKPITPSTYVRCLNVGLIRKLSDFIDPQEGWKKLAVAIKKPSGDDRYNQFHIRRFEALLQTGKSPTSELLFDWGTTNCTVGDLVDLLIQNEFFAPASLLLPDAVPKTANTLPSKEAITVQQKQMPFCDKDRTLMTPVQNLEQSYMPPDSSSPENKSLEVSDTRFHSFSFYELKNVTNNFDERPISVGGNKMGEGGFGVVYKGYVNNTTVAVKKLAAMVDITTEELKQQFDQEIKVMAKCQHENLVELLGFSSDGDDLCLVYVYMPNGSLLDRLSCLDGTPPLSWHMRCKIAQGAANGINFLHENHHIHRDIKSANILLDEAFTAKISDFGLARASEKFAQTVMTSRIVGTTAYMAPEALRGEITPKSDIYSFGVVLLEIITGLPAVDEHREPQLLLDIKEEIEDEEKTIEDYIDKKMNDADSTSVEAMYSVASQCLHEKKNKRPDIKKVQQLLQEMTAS
Chain of Casein kinase I isoform alpha (Homo sapiens) (P48729 2-337 limits assumed): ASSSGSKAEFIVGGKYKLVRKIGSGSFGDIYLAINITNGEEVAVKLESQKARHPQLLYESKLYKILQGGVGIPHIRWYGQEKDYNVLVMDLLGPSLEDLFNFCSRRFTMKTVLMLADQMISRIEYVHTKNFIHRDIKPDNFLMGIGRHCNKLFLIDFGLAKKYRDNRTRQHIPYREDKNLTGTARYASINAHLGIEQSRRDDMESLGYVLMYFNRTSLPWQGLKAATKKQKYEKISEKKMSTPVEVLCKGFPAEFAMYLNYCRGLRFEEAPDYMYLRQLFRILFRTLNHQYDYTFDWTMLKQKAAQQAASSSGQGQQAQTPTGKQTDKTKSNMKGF
Chain of Serine/threonine-protein kinase PAK 4 (Homo sapiens) (O96013 whole entry, looked up): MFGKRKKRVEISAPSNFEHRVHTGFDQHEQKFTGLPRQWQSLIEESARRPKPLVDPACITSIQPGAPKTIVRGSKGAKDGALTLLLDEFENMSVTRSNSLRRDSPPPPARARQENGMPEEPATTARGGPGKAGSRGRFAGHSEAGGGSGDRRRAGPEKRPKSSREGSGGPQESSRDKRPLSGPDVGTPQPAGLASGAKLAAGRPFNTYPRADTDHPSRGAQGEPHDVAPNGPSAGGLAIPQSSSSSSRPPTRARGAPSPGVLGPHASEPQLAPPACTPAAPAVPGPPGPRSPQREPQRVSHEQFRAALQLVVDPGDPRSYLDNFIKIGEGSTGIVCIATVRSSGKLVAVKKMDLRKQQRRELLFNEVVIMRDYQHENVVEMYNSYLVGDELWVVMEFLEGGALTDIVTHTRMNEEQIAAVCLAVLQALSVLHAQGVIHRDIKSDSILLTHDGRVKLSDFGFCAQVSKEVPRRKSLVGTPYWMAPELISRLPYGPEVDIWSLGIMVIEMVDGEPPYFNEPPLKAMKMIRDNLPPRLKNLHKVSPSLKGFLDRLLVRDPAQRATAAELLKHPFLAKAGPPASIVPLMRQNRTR
Chain of Serine/threonine-protein kinase D1 (Homo sapiens) (Q15139 whole entry): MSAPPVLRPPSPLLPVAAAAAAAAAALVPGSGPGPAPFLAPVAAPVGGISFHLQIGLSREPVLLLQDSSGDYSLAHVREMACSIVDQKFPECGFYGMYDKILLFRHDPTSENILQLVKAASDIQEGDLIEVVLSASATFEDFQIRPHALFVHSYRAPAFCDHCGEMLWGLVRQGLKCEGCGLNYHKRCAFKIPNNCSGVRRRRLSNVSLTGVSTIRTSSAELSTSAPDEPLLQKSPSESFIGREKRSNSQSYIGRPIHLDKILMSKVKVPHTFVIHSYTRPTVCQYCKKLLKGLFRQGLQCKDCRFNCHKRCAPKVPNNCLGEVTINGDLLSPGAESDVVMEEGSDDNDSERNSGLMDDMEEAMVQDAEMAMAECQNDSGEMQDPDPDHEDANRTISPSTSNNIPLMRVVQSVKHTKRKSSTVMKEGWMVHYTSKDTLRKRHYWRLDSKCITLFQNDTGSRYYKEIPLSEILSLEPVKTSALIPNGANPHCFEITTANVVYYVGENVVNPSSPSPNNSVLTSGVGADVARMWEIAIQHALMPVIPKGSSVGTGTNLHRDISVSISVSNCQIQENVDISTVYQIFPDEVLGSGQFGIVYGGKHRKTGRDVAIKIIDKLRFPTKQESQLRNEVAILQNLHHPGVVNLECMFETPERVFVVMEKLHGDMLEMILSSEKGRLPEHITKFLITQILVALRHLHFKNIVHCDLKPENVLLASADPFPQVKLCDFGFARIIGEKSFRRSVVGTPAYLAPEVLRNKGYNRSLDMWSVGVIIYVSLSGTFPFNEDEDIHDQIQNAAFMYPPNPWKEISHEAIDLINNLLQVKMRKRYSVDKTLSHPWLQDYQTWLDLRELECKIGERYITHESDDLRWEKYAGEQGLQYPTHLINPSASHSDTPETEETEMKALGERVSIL

inhibition [1]: 1.9% | inhibition [2]: 1.2% | inhibition [3]: 4.8% | inhibition [4]: 99.7% | inhibition [5]: 4.4% | inhibition [6]: 3.5% | inhibition [7]: 95.9% | inhibition [8]: 88.1% | inhibition [9]: 9.1% | inhibition [10]: 7.7% | inhibition [11]: -8.1% | inhibition [12]: 4.3% | inhibition [13]: 6.9% | inhibition [14]: 13.9% | inhibition [15]: 90.6% | inhibition [16]: 27.7% | inhibition [17]: 13.3% | inhibition [18]: 5.4% | inhibition [19]: 19.8% | inhibition [20]: 7.9% | inhibition [21]: 3.5% | inhibition [22]: 4.3% | inhibition [23]: 18.6% | inhibition [24]: 2.1% | inhibition [25]: 2% | inhibition [26]: -2.5% | inhibition [27]: 0.2% | inhibition [28]: 89.9% | inhibition (Homo sapiens): 78.8% | inhibition [29]: 7.9% | inhibition [30]: 16.6% | inhibition [31]: 47.3% | inhibition [32]: 97.4% | inhibition [33]: 35.2% | inhibition [34]: 79.6% | efflux ratio [35]: 2.4 | inhibition [36]: 10.4% | inhibition [37]: 13.7% | inhibition [38]: 4.9% | inhibition [39]: -9.9% | inhibition [40]: 9.7% | inhibition [41]: 9.2% | inhibition [42]: 0.4% | Vd [43]: 6 L/kg
Structure (SMILES): CC1(C)OCc2c(Nc3n[nH]c4ccccc34)nc(-c3cn[nH]c3)nc21

inhibition [1]: 5.3% | inhibition [2]: -3.5% | inhibition [3]: 7% | inhibition [4]: 95.2% | inhibition [5]: 13.5% | inhibition [7]: 91.5% | inhibition [8]: 94.6% | inhibition [9]: 7.4% | inhibition [10]: 3.5% | inhibition [11]: 12.6% | inhibition [12]: 10.4% | inhibition [13]: -3.3% | inhibition [14]: 19.5% | inhibition [16]: 85.1% | inhibition [17]: 4.8% | inhibition [18]: 2% | inhibition [19]: 17% | inhibition [20]: 7.7% | inhibition [21]: 11.1% | inhibition [22]: 16.9% | inhibition [24]: 8.4% | inhibition [25]: 4.3% | inhibition [26]: 16.4% | inhibition [27]: -3.1% | inhibition [28]: 94% | inhibition (Homo sapiens): 88.7% | inhibition [29]: 9.4% | inhibition [30]: 25.3% | inhibition [31]: 66.5% | inhibition [32]: 93.7% | inhibition [33]: 10.8% | inhibition [34]: 82% | efflux ratio [35]: 1.6 | inhibition [38]: 2% | inhibition [39]: 4.1% | inhibition [40]: 9.1% | inhibition [41]: 3.5% | inhibition [42]: 7% | Vd [43]: 3.6 L/kg
Structure (SMILES): CC1(C)OCc2c(Nc3n[nH]c4c(Cl)cccc34)nc(-c3cn[nH]c3)nc21

Reference: ChEMBL document CHEMBL3758169, “4-Aminoindazolyl-dihydrofuro[3,4-d]pyrimidines as non-covalent inhibitors of mutant epidermal growth factor receptor tyrosine kinase” (Bioorg Med Chem Lett, 2016)
